Experimental data reported in ChEMBL document CHEMBL5154747, “Discovery of new carbonic anhydrase IX inhibitors as anticancer agents by toning the hydrophobic and hydrophilic rims of the active site to encounter the dual-tail approach” (Eur J Med Chem, 2022).

Key:
UACC-257 = assay: Anticancer activity against human UACC-257 cells assessed as cell growth inhibition at 10 uM incubated for 48 hrs by SRB assay relative to control; assay type: functional; settings: read-out: GI
OVCAR-5 = assay: Anticancer activity against human OVCAR-5 cells assessed as cell growth inhibition at 10 uM incubated for 48 hrs by SRB assay relative to control; assay type: functional; settings: read-out: GI
MDA-MB-435 = assay: Anticancer activity against human MDA-MB-435 cells assessed as cell growth inhibition at 10 uM incubated for 48 hrs by SRB assay relative to control; assay type: functional; settings: read-out: GI
OVCAR-3 = assay: Anticancer activity against human OVCAR-3 cells assessed as cell growth inhibition at 10 uM incubated for 48 hrs by SRB assay relative to control; assay type: functional; settings: read-out: GI
MDA-MB-231 = assay: Anticancer activity against human MDA-MB-231 cells assessed as cell growth inhibition at 10 uM incubated for 48 hrs by SRB assay relative to control; assay type: functional; settings: read-out: GI
A498 = assay: Anticancer activity against human A498 cells assessed as cell growth inhibition at 10 uM incubated for 48 hrs by SRB assay relative to control; assay type: functional; settings: read-out: GI
U-251 = assay: Anticancer activity against human U-251 cells assessed as cell growth inhibition at 10 uM incubated for 48 hrs by SRB assay relative to control; assay type: functional; settings: read-out: GI
SF-539 = assay: Anticancer activity against human SF-539 cells assessed as cell growth inhibition at 10 uM incubated for 48 hrs by SRB assay relative to control; assay type: functional; settings: read-out: GI
HCC 2998 = assay: Anticancer activity against human HCC 2998 cells assessed as cell growth inhibition at 10 uM incubated for 48 hrs by SRB assay relative to control; assay type: functional; settings: read-out: GI
NCI-H460 = assay: Anticancer activity against human NCI-H460 cells assessed as cell growth inhibition at 10 uM incubated for 48 hrs by SRB assay relative to control; assay type: functional; settings: read-out: GI
MDA-MB-468 = assay: Anticancer activity against human MDA-MB-468 cells assessed as cell growth inhibition at 10 uM incubated for 48 hrs by SRB assay relative to control; assay type: functional; settings: read-out: GI
RPMI-8226 = assay: Anticancer activity against human RPMI-8226 cells assessed as cell growth inhibition at 10 uM incubated for 48 hrs by SRB assay relative to control; assay type: functional; settings: read-out: GI
K562 = assay: Anticancer activity against human K562 cells assessed as cell growth inhibition at 10 uM incubated for 48 hrs by SRB assay relative to control; assay type: functional; settings: read-out: GI
SNB-75 = assay: Anticancer activity against human SNB-75 cells assessed as cell growth inhibition at 10 uM incubated for 48 hrs by SRB assay relative to control; assay type: functional; settings: read-out: GI
CAKI-1 = assay: Anticancer activity against human CAKI-1 cells assessed as cell growth inhibition at 10 uM incubated for 48 hrs by SRB assay relative to control; assay type: functional; settings: read-out: GI
HCT-15 = assay: Anticancer activity against human HCT-15 cells assessed as cell growth inhibition at 10 uM incubated for 48 hrs by SRB assay relative to control; assay type: functional; settings: read-out: GI
SR = assay: Anticancer activity against human SR cells assessed as cell growth inhibition at 10 uM incubated for 48 hrs by SRB assay relative to control; assay type: functional; settings: read-out: GI
HOP-62 = assay: Anticancer activity against human HOP-62 cells assessed as cell growth inhibition at 10 uM incubated for 48 hrs by SRB assay relative to control; assay type: functional; settings: read-out: GI
SF-268 = assay: Anticancer activity against human SF-268 cells assessed as cell growth inhibition at 10 uM incubated for 48 hrs by SRB assay relative to control; assay type: functional; settings: read-out: GI
PC-3 = assay: Anticancer activity against human PC-3 cells assessed as cell growth inhibition at 10 uM incubated for 48 hrs by SRB assay relative to control; assay type: functional; settings: read-out: GI
MOLT-4 = assay: Anticancer activity against human MOLT-4 cells assessed as cell growth inhibition at 10 uM incubated for 48 hrs by SRB assay relative to control; assay type: functional; settings: read-out: GI
KM12 = assay: Anticancer activity against human KM12 cells assessed as cell growth inhibition at 10 uM incubated for 48 hrs by SRB assay relative to control; assay type: functional; settings: read-out: GI
NCI-H23 = assay: Anticancer activity against human NCI-H23 cells assessed as cell growth inhibition at 10 uM incubated for 48 hrs by SRB assay relative to control; assay type: functional; settings: read-out: GI
SK-MEL-5 = assay: Anticancer activity against human SK-MEL-5 cells assessed as cell growth inhibition at 10 uM incubated for 48 hrs by SRB assay relative to control; assay type: functional; settings: read-out: GI
ACHN = assay: Anticancer activity against human ACHN cells assessed as cell growth inhibition at 10 uM incubated for 48 hrs by SRB assay relative to control; assay type: functional; settings: read-out: GI
UACC-62 = assay: Anticancer activity against human UACC-62 cells assessed as cell growth inhibition at 10 uM incubated for 48 hrs by SRB assay relative to control; assay type: functional; settings: read-out: GI
MCF7 = assay: Anticancer activity against human MCF7 cells assessed as cell growth inhibition at 10 uM incubated for 48 hrs by SRB assay relative to control; assay type: functional; settings: read-out: GI
SK-MEL-2 = assay: Anticancer activity against human SK-MEL-2 cells assessed as cell growth inhibition at 10 uM incubated for 48 hrs by SRB assay relative to control; assay type: functional; settings: read-out: GI
Carbonic anhydrase 9 = Carbonic anhydrase 9 (Homo sapiens, UniProt Q16790); assay: Inhibition of recombinant human CA 9 preincubated for 15 mins by phenol red dye based stopped flow CO2 hydration assay
HL-60(TB) = assay: Anticancer activity against human HL-60(TB) cells assessed as cell growth inhibition at 10 uM incubated for 48 hrs by SRB assay relative to control; assay type: functional; settings: read-out: GI
NCI-H226 = assay: Anticancer activity against human NCI-H226 cells assessed as cell growth inhibition at 10 uM incubated for 48 hrs by SRB assay relative to control; assay type: functional; settings: read-out: GI
NCI/ADR-RES = assay: Anticancer activity against human NCI/ADR-RES cells assessed as cell growth inhibition at 10 uM incubated for 48 hrs by SRB assay relative to control; assay type: functional; settings: read-out: GI
CCRF-CEM = assay: Anticancer activity against human CCRF-CEM cells assessed as cell growth inhibition at 10 uM incubated for 48 hrs by SRB assay relative to control; assay type: functional; settings: read-out: GI
SW-620 = assay: Anticancer activity against human SW-620 cells assessed as cell growth inhibition at 10 uM incubated for 48 hrs by SRB assay relative to control; assay type: functional; settings: read-out: GI
T47D = assay: Anticancer activity against human T47D cells assessed as cell growth inhibition at 10 uM incubated for 48 hrs by SRB assay relative to control; assay type: functional; settings: read-out: GI
OVCAR-4 = assay: Anticancer activity against human OVCAR-4 cells assessed as cell growth inhibition at 10 uM incubated for 48 hrs by SRB assay relative to control; assay type: functional; settings: read-out: GI
HOP-92 = assay: Anticancer activity against human HOP-92 cells assessed as cell growth inhibition at 10 uM incubated for 48 hrs by SRB assay relative to control; assay type: functional; settings: read-out: GI
A549 = assay: Anticancer activity against human A549 cells assessed as cell growth inhibition at 10 uM incubated for 48 hrs by SRB assay relative to control; assay type: functional; settings: read-out: GI
BT-549 = assay: Anticancer activity against human BT-549 cells assessed as cell growth inhibition at 10 uM incubated for 48 hrs by SRB assay relative to control; assay type: functional; settings: read-out: GI
HCT-116 = assay: Anticancer activity against human HCT-116 cells assessed as cell growth inhibition at 10 uM incubated for 48 hrs by SRB assay relative to control; assay type: functional; settings: read-out: GI

SMILES | inhibition of growth at 10 µM (UACC-257) | inhibition of growth at 10 µM (OVCAR-5) | inhibition of growth at 10 µM (MDA-MB-435) | inhibition of growth at 10 µM (OVCAR-3) | inhibition of growth at 10 µM (MDA-MB-231) | inhibition of growth at 10 µM (A498) | inhibition of growth at 10 µM (U-251) | inhibition of growth at 10 µM (SF-539) | inhibition of growth at 10 µM (HCC 2998) | inhibition of growth at 10 µM (NCI-H460) | inhibition of growth at 10 µM (MDA-MB-468) | inhibition of growth at 10 µM (RPMI-8226) | inhibition of growth at 10 µM (K562) | inhibition of growth at 10 µM (SNB-75) | inhibition of growth at 10 µM (CAKI-1) | inhibition of growth at 10 µM (HCT-15) | inhibition of growth at 10 µM (SR) | inhibition of growth at 10 µM (HOP-62) | inhibition of growth at 10 µM (SF-268) | inhibition of growth at 10 µM (PC-3) | also measured
NS(=O)(=O)c1ccc(Nc2nc(N/N=C/c3ccccc3)nc(Nc3ccccc3)n2)cc1 | < 10% | < 10% | 26% | 29% | 16% | 42% | 14% | 23% | 21% | 31% | 19% | 41% | 40% | < 10% | 27% | 13% | 25% | < 10% | 19% | 31% | inhibition of growth at 10 µM (MOLT-4): 58%; inhibition of growth at 10 µM (KM12): 26%; inhibition of growth at 10 µM (NCI-H23): 13%; inhibition of growth at 10 µM (SK-MEL-5): 35%; inhibition of growth at 10 µM (ACHN): 17%; inhibition of growth at 10 µM (UACC-62): 31%; inhibition of growth at 10 µM (MCF7): 46%; inhibition of growth at 10 µM (SK-MEL-2): 10%; Ki (Carbonic anhydrase 9): 30.3 nM; inhibition of growth at 10 µM (HL-60(TB)): 40%; inhibition of growth at 10 µM (NCI-H226): 22%; inhibition of growth at 10 µM (NCI/ADR-RES): < 10%; inhibition of growth at 10 µM (CCRF-CEM): 52%; inhibition of growth at 10 µM (SW-620): < 10%; inhibition of growth at 10 µM (T47D): 37%; inhibition of growth at 10 µM (OVCAR-4): 15%; inhibition of growth at 10 µM (HOP-92): 27%; inhibition of growth at 10 µM (A549): 28%; inhibition of growth at 10 µM (BT-549): < 10%; inhibition of growth at 10 µM (HCT-116): 27%
Cc1ccc(/C=N/Nc2nc(Nc3ccccc3)nc(Nc3ccc(S(N)(=O)=O)cc3)n2)cc1 | < 10% | 15% | 30% | 39% | 26% | 45% | 37% | 55% | 25% | 45% | 35% | 56% | 43% | 32% | 39% | 46% | 64% | 13% | 12% | 33% | inhibition of growth at 10 µM (MOLT-4): 59%; inhibition of growth at 10 µM (KM12): 34%; inhibition of growth at 10 µM (NCI-H23): 23%; inhibition of growth at 10 µM (SK-MEL-5): 23%; inhibition of growth at 10 µM (ACHN): 38%; inhibition of growth at 10 µM (UACC-62): < 10%; inhibition of growth at 10 µM (MCF7): 73%; inhibition of growth at 10 µM (SK-MEL-2): 22%; Ki (Carbonic anhydrase 9): 26.9 nM; inhibition of growth at 10 µM (HL-60(TB)): 24%; inhibition of growth at 10 µM (NCI-H226): 20%; inhibition of growth at 10 µM (NCI/ADR-RES): < 10%; inhibition of growth at 10 µM (CCRF-CEM): 57%; inhibition of growth at 10 µM (SW-620): < 10%; inhibition of growth at 10 µM (T47D): 45%; inhibition of growth at 10 µM (OVCAR-4): 30%; inhibition of growth at 10 µM (HOP-92): > 10%; inhibition of growth at 10 µM (A549): 16%; inhibition of growth at 10 µM (BT-549): 23%; inhibition of growth at 10 µM (HCT-116): 48%
NS(=O)(=O)c1ccc(Nc2nc(N/N=C/c3ccc(Cl)cc3)nc(Nc3ccccc3)n2)cc1 | 10% | 16% | 42% | 29% | 13% | 23% | 45% | 46% | 23% | 27% | 33% | 45% | 40% | < 10% | 37% | 23% | 81% | 16% | 26% | 48% | inhibition of growth at 10 µM (MOLT-4): 98%; inhibition of growth at 10 µM (KM12): 36%; inhibition of growth at 10 µM (NCI-H23): 12%; inhibition of growth at 10 µM (SK-MEL-5): 30%; inhibition of growth at 10 µM (ACHN): < 10%; inhibition of growth at 10 µM (UACC-62): 25%; inhibition of growth at 10 µM (MCF7): 61%; inhibition of growth at 10 µM (SK-MEL-2): 18%; Ki (Carbonic anhydrase 9): 22.6 nM; inhibition of growth at 10 µM (HL-60(TB)): 27%; inhibition of growth at 10 µM (NCI-H226): 18%; inhibition of growth at 10 µM (NCI/ADR-RES): < 10%; inhibition of growth at 10 µM (CCRF-CEM): 80%; inhibition of growth at 10 µM (SW-620): < 10%; inhibition of growth at 10 µM (T47D): 55%; inhibition of growth at 10 µM (OVCAR-4): 16%; inhibition of growth at 10 µM (HOP-92): < 10%; inhibition of growth at 10 µM (A549): 37%; inhibition of growth at 10 µM (BT-549): 25%; inhibition of growth at 10 µM (HCT-116): 55%
